From patent publication US20250268873A1, “COMBINATION OF DUAL ATM AND DNA-PK INHIBITORS AND IMMUNOTHERAPEUTIC AGENTS FOR USE IN CANCER THERAPY” (XRAD THERAPEUTICS, INC., priority 2021, published 2025) come the findings set out here.

One assay relates to MDA-MB-231 tumors. In words: In vivo tumor growth delay study, MDA-MB-231 subcutaneous human xenograft mouse model. The procedure:
(§1) Female NCr nu/nu mice (Crl:NU(NCr)-Foxn1nu, Strain 490) were obtained from Charles River at 5-6 weeks of age.
(§2) FADU or MDA-MB-231 cells were harvested during log phase growth for in vivo implantation. The resuspended cells were washed three times in phosphate buffered saline (PBS) before preparing the working dilution in PBS. FADU cells were diluted to 1×10^7 cells/mL and MDA-MB-231 cells were diluted to 5×10^7 cells/mL. Each mouse was injected subcutaneously in the right flank with 100 μL of the cellular suspension. Tumor growth was monitored until the tumors reached a target volume of at least 100 mm^3, at which point mice were randomly stratified into four treatment groups.
(§3) Following implantation of the tumor cell lines, mice were monitored once weekly for tumor development. Upon detection, tumors were measured in two dimensions using digital calipers. Tumors were treated after reaching at least 100 mm^3 and were measured two to three times weekly following enrollment in one of the treatment groups. The study endpoint was defined as tumor quintupling from the volume at time of treatment.
(§4) The vehicle used in this study was 0.5% (Hydroxypropyl)methyl cellulose (HPMC) and 0.2% Tween80 dissolved in deionized water. The pH of the vehicle was adjusted to 7.0-8.0 and the vehicle was stored at 4° C. On each day of in vivo treatment an appropriate mass of test compound was added to the vehicle at room temperature. The mixture was vortexed as necessary to generate a final concentration of 1.6 mg/mL.
(§5) In vivo tumor growth delay study was performed as follows. Following implantation of the tumor cell lines, mice were monitored once weekly for tumor development. Upon development of a tumor measuring at least 100 mm^3, tumor-bearing mice were stratified to one of 4 groups, utilizing 5 mice per group. Tumor volumes were between 100 and 500 mm^3. Vehicle or compound 569 (10 mg/kg) were administered by oral gavage once daily for three consecutive days (qd×3), alone or in combination with focal radiation. The delivered volume of vehicle or compound 569 was adjusted based on body weight of the individual animals. […]
(§6) Prism (GraphPad) was used for graphical presentations. […] In order to adjust for the differing tumor sizes at the start of treatment, the relative tumor volume was calculated by dividing the tumor volume at each time point by the volume at baseline. […] When an animal exited the study due to tumor quintupling, the final tumor volume recorded for the animal was included with the data used to calculate the median volume at subsequent time points. […] Differences in quintupling-free survival between the four treatment groups were evaluated with a log-rank test. […]

In a further assay the target is DNA-PK (Homo sapiens (Human), UniProt P78527). As to the kind of experiment: Pharmacodynamic assay, pDNA-PK/DNA-PK in MDA-231 tumors. In kind it is in vivo. The procedure:
as §2
(§7) Tumor studies were performed as follows. Mice bearing FADU or MDA-231 tumors were pre-dosed with vehicle alone or compound 569 alone at 3, 6, and 10 mg/kg. Tumors were then irradiated with 10 Gy 45 min after vehicle or compound 569 administration or left unirradiated (vehicle and compound 569 at 10 mg/kg). Tumors were harvested 1 h post radiation.
(§8) Tissue homogenates for pharmacodynamic analyses were collected and processed as follows. Tumor tissues from FADU or MDA-MB-231 tumors were flash frozen in liquid nitrogen and pulverized on dry ice using a tissue pulverizer. A portion of the tumor powder was transferred into a microtube, followed by addition of 500 μL of RIPA buffer [[…], pH 8.0, 150 mM NaCl, 0.1% SDS, 0.5% sodium deoxycholate, 1% IGEPAL® CA-630 (Sigma, I8896)]. To 10 ml of RIPA buffer, 2 tablets each of Protease inhibitor and Phosphatase inhibitor (Roche, #04693159001 & #04906837001), 200 μL of 0.1 M PMSF and 160 μL of Aprotinin, (Sigma, A6279) were added. The suspension was homogenized on ice with a pellet pestle motor (KONTES) and incubated on ice for 30 minutes. Cell lysates were centrifuged at 13,200 rpm for 15 min at 4° C. and supernatants were transferred to a new tube and analyzed for protein concentration with a BCA kit (Pierce, 23227), followed by immunoblotting.

Assay [1] concerns the target T1, ATM (Homo sapiens (Human), UniProt Q13315). In words: Pharmacodynamic assay, pKAP1/KAP1 in MDA-231 tumors. It counts as in vivo. The procedure: as §2, §7, §8
Assay [2] addresses T1, ATM. In words: Pharmacodynamic assay, pKAP1/KAP1 in FADU tumors. It counts as in vivo. The following applies: for pKAP1/KAP1: FADU tumors. The procedure: as §2, §7, §8
Another assay deals with FADU tumors. As to the kind of experiment: In vivo tumor growth delay study, FADU subcutaneous human xenograft mouse model. The method, then:
as §1, §2, §3, §4, §5, §6
A general note: In xenograft studies the graft and the host belong to different species.

Where [3] appears, read: Group 4: compound 569 10 mg/kg 45 min prior to 3 Gy focal radiation, qd×3.
The mark [4] stands for this setting: Group 4: compound 569 + 3 Gy qd×3, P<0.01, logrank.

One may read the inhibition as the change of the read-out against control, counted positive when it falls.

T1 sequence (Q13315 whole entry): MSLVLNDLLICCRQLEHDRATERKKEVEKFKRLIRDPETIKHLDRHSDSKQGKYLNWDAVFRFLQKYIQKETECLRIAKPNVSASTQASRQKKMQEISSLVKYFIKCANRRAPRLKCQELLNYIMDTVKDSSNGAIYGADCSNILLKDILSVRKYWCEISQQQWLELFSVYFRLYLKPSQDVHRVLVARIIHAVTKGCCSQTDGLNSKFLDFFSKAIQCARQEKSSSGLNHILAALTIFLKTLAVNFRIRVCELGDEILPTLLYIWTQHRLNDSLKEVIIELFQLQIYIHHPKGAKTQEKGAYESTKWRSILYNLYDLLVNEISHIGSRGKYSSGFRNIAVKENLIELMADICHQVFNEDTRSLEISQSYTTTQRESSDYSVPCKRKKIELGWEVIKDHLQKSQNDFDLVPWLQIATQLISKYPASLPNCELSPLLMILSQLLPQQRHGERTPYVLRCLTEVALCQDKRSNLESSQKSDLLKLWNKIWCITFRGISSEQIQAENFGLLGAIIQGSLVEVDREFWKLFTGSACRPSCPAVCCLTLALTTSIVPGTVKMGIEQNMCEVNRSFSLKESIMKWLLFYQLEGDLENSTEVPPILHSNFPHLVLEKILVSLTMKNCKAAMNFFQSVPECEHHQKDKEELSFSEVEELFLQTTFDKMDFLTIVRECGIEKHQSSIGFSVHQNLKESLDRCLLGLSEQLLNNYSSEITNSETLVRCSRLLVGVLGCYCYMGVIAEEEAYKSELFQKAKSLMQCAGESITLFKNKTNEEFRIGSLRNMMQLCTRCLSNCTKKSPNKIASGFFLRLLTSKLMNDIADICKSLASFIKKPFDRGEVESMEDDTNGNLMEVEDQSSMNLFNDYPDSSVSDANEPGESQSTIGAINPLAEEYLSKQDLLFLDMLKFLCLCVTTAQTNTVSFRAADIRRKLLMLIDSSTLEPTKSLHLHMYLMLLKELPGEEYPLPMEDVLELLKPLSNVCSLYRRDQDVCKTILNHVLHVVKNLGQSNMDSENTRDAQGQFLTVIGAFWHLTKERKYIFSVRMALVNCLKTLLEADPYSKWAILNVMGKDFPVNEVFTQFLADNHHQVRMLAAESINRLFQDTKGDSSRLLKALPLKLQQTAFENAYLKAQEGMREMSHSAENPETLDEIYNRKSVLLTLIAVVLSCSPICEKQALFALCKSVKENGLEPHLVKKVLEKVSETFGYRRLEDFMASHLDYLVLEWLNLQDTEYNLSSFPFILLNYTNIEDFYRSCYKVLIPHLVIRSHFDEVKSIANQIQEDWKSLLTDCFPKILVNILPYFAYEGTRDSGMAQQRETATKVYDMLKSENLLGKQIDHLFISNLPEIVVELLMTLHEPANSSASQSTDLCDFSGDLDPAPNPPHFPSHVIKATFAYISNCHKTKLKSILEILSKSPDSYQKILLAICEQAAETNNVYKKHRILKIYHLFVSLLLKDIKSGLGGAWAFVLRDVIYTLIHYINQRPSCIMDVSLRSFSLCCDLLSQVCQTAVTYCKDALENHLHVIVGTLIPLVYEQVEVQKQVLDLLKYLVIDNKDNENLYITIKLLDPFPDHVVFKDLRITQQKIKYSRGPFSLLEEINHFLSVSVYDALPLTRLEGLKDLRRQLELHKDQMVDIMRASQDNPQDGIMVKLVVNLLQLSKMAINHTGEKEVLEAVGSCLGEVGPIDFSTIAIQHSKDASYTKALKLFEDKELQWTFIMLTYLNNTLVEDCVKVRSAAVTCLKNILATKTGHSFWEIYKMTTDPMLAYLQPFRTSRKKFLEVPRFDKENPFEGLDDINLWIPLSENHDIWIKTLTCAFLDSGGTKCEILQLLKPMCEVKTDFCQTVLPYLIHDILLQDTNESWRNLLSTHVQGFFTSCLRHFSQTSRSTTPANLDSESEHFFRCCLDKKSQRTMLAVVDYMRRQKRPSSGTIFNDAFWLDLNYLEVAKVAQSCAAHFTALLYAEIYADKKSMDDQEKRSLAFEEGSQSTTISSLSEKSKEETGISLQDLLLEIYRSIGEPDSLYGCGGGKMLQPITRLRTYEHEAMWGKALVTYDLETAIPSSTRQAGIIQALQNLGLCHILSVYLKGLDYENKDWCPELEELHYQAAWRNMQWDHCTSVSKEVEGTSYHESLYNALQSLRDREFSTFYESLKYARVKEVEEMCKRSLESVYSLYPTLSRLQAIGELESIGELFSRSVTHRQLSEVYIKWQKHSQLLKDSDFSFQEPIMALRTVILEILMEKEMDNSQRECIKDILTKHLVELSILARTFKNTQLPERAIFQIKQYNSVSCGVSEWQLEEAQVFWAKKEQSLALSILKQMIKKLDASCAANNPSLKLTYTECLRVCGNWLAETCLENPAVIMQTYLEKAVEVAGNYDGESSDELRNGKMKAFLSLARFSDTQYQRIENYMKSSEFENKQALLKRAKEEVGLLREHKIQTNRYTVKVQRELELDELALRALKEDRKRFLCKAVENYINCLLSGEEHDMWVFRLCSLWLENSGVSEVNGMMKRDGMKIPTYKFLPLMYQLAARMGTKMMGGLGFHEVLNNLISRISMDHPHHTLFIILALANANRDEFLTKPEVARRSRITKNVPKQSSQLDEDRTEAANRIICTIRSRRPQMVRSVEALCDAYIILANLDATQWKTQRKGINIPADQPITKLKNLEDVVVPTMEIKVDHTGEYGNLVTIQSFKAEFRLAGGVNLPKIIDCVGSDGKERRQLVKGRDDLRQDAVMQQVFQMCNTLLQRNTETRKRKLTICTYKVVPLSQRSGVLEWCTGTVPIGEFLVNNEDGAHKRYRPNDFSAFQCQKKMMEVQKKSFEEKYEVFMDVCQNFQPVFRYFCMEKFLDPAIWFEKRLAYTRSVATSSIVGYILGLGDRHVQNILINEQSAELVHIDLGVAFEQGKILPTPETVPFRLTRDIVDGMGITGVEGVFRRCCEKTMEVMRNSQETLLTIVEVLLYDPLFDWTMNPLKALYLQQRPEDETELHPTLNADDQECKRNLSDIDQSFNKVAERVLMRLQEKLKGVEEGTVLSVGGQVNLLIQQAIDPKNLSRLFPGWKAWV

Turning to `CC(C)NCCOc1ncc(-c2cc3c4c(cnc3cc2F)N(C)C(=O)C42CCC2)cc1NS(C)(=O)=O` [Compound 569, N-(5-(7′-Fluoro-3′-methyl-2′-oxo-2′,3′-dihydrospiro[cyclobutane-1,1′-pyrrolo[2,3-c]quinolin]-8′-yl)-2-(2-(isopropylamino)ethoxy)pyridin-3-yl)methanesulfonamide], the “median time to endpoint (tumor quintupling)” value amounted to 17 days in the assay with MDA-MB-231 tumors (Group 2: compound 569 10 mg/kg po qd×3 alone), 43 days in the assay with MDA-MB-231 tumors (setting [3]), 14 days in the assay with FADU tumors (Group 2: Compound 569 10 mg/kg po qd×3 alone) and 42 days with FADU tumors (setting [3]). Also, the “tumor growth curves and quintupling-free survival” value with MDA-MB-231 tumors (Group 2: compound 569 10 mg/kg qd×3 alone vs vehicle (Group 1)) and with FADU tumors (Group 2: Compound 569 10 mg/kg qd×3 alone vs vehicle (Group 1)) was “nearly identical to those for Group 1” each time. In addition, the “overall survival (quintupling-free)” value with MDA-MB-231 tumors (setting [4]) is “significantly improved compared to Group 1, Group 2, and Group 3”; with FADU tumors (setting [4]) it was “significantly improved compared to Group 1, Group 2, and Group 3”. Further, the pDNA-PK/DNA-PK on DNA-PK (10 Gy, 3 mg/kg oral) is listed as 0.889; at DNA-PK (10 Gy, 6 mg/kg oral), 0.670; on DNA-PK (10 Gy, 10 mg/kg oral), 0.454; at DNA-PK (no radiation, 10 mg/kg oral), 0.223. Further, the pKAP1/KAP1 was 0.327 on ATM [1] (10 Gy, 3 mg/kg oral); 0.0130 on ATM [1] (10 Gy, 6 mg/kg oral); 0.00901 at ATM [1] (10 Gy, 10 mg/kg oral); −0.00319 on ATM [1] (no radiation, 10 mg/kg oral); 0.0903 at ATM [2] (10 Gy, 3 mg/kg oral); 0.0982 on ATM [2] (10 Gy, 6 mg/kg oral). For the same molecule, the pKAP1/KAP1 on ATM [2] (10 Gy, 10 mg/kg oral) is recorded as 0.156; on ATM [2] (no radiation, 10 mg/kg oral), 0.00595. Further, the inhibition at 10 mg/kg at ATM [2] (10 mg/kg, 10 Gy, FADU and MDA231 tumors (FIGS. 4 and 5), read-out: inhibition of tumor levels of radiation-induced phosphorylation of KAP1) is more than 80%.
